{
  "source": "patent US8652799B2",
  "about": "“Method of detecting bioactive molecules in a fluid sample” (priority 2008, dated 2014)",
  "type_in_all_cases": "cell-based",
  "key": {"[1]": {"system": "Dunaliella tertiolecta", "conditions": "15 min. green light exposition at room temperature; neutral pH (pH 7); 350 000 cells/mL", "method": "(§1) The detection threshold was obtained with the geometric mean. It was calculated with the following formula: Detection threshold=(CSEO×CMEO)^1/2 where\n(§2) CMEO=minimal concentration resulting in a detectable inhibition of the algae efficacy.\n(§3) CSEO and CMEO were estimated by a variance analysis ANNOVA™ followed by a Dunnett multiple comparison by comparing the mean efficacy of each tested concentration with the control mean. Calculations were performed with TOXSTAT™ (Version 3.5).\nA Dunaliella tertiolecta culture was prepared as described in Example 2 above. As indicated in Example 2, the algae were reactivated before testing under ambient light and at room temperature during 45 minutes.\nThe algae formulations were then incubated for 15 minutes with water containing one of the various contaminants listed in Table 2 below at neutral pH under green light and at room temperature. The algae concentration was 350 000 cells/mL (500 μL of algae within 2 mL of aqueous solution (i.e. distilled water) containing substance to detect at indicated concentrations). For each substances, 5 concentrations in triplicates were tested. The TOXSTAT™ software was used to calculate from inhibition values and standard deviations obtained, the maximum concentration without observable effect and the minimal concentration with observable effects (See Table 2 below). The temperature was controlled by a thermostatic bath. Tests were performed in triplicates. The fluorescence emitted by each formulation was then measured with Luminotox™, a fluorometer that measures photosynthetic activity and detection threshold determined as described in the Example above."}, "[2]": {"system": "Anabaena sp.", "test": "Detection of bioactive molecules with Anabaena sp.: inhibition of photosynthetic fluorescence (Luminotox)", "conditions": "10 min, neutral pH; for inhibition at 0.001 ppm: 1 ppb", "method": "The photosynthetic efficiency is determined with the following formula (F2−F1)/F2. Any molecule affecting directly or indirectly the photosystems modify either F1 or F2 which modification necessarily decreases the photosynthetic efficiency. The inhibition curve of a particular molecule is determined by calculating the activity of the photosystems in the absence of the molecule and in the presence of the molecule and comparing both efficiency as follows as described in Conrad 1993:\nWithout Inhibitor (wi): efficiency(wi)=(F2(wi)−F1(wi)/F2(wi) With Inhibitor: Relative photosynthetic efficiency(sample)=(F2(sample)−F1(sample))/F2(wi) Percentage Efficiency: efficiency (%)=(efficiency(sample)×100)/efficiency(wi) Percentage Inhibition: Inhibition (%)=100−efficiency (%)\nAn Anabaena sp. culture was prepared as described in Example 3 above. As indicated in Example 3, the cyanobacteria were reactivated before testing under ambient light and at room temperature during 60 minutes.\nThe culture was then incubated with bioactive molecules listed in Table 1 below at concentrations of 1 ppm (except for atrazine which was used at a concentration of 1 ppb) for 10 minutes under ambient light followed by 10 minutes under green light and neutral pH. The cellular concentration was 1.0×10^7 cells/mL (100 μL of cyanobacteria within 2 mL of bioactive agent containing aqueous solution (i.e. distilled water)). Testing was performed in triplicates. The fluorescence emitted by each formulation was then measured with Luminotox™ a fluorometer that measures photosynthetic activity."}, "[3]": {"system": "Chlorella vulgaris", "conditions": "10-15 min. green light exposition at room temperature; neutral pH (pH 7); 5×10^6 cells/mL", "method": "The algae concentration was 5×10^6 cells/mL (100 μL of algae within 2 mL of aqueous solution (i.e. distilled water)) containing the substance to detect at indicated concentrations. For each substances, 5 concentrations in triplicates were tested. The TOXSTAT™ software was used to calculate from inhibition values and standard deviations obtained, the maximum concentration without observable effect and the minimal concentration with observable effects. The threshold was calculated with the following formula: (maximum concentration without observable effect x minimal concentration with observable effects)^1/2 (See Table 2 below). The temperature was controlled by a thermostatic bath.\nas §1, §2, §3"}, "[4]": {"system": "Chlorella vulgaris", "test": "Stability of Chlorella vulgaris assessed by the CI20 of atrazine", "conditions": "10 min green light, room temperature; + or − two sigma 0.002; algae stored at 4° C. and 20° C.; atrazine tested 0-0.04 mg/L", "method": "The stability of Chlorella vulgaris was evaluated by determining the Cl20 of atrazine using seven different atrazine concentrations. Cl20 is the concentration of atrazine inhibiting 20% of the efficacy emitted by Chlorella vulgaris as compared to a control Chlorella vulgaris preparation. The Cl20 is statistically determined with the software Icp version 2.0. Stability over time is determined by assessing the number of Cl20 within a range of 2 σ of average.\nA Chlorella vulgaris culture was prepared as described in Example 1 above. As indicated above, the algae were reactivated before testing during 90 minutes under ambient light and at room temperature.\nThe culture was then incubated with atrazine for 10 minutes under green light and at room temperature. The cellular concentration of the algae was 5×10^6 cells/mL of solution (100 μL algae in 2 mL of atrazine-containing aqueous solution (i.e. distilled water)). The concentration of atrazine varied between 0 and 0.04 mg/L. Testing was performed in triplicates. The fluorescence emitted by each formulation was then measured with Luminotox™, a fluorometer that measures photosynthetic activity."}, "[5]": {"system": "Chlorella vulgaris", "test": "Tetracycline detection with Chlorella vulgaris (ambient light, 35° C., low algae concentration)", "conditions": "within 15 minutes, neutral pH, 2.5×10^6 cells/mL", "method": "A Chlorella vulgaris culture was prepared as described in Example 1 above. As indicated in Example 1, the algae were reactivated before testing under ambient light and at room temperature during 90 minutes.\nThe algae formulation was then incubated for 15 or 60 minutes with water containing tetracycline at the indicated concentrations (FIG. 17) under ambient light at a temperature of 35° C. and at a neutral pH. Algae concentrations of 2.5×10^6 cells/mL (50 μL of algae within 2 mL of tetracycline-containing aqueous solutions (i.e. distilled water)) were tested. Testing was performed in triplicates. The fluorescence emitted by each formulation was then measured with Luminotox™, a fluorometer that measures photosynthetic activity."}},
  "note": "Read-outs that look alike come from different tables or passages of the source.",
  "data": [
    {"smiles": "CCNc1nc(Cl)nc(NC(C)C)n1", "note": "[atrazine]", "values": [
      {"measurement": "Detection threshold", "setting": "[1]", "result": 0.01, "unit": "ppm"},
      {"measurement": "inhibition at 0.001 ppm", "setting": "[2]; 10 min ambient light followed by 10 min green light, read-out: Inhibition obtained (followed by 10 min green light)", "result": 13, "unit": "%"},
      {"measurement": "inhibition at 0.001 ppm", "setting": "[2]; 10 min ambient light, read-out: Inhibition obtained (10 min ambiant light)", "result": 1, "unit": "%"},
      {"measurement": "Detection threshold", "setting": "[3]", "result": 0.0007, "unit": "ppm"},
      {"measurement": "CI20 (concentration inhibiting 20% of the efficacy), average over storage", "setting": "[4]", "result": 0.0037}
    ]},
    {"smiles": "CN(C)[C@@H]1C(O)=C(C(N)=O)C(=O)[C@@]2(O)C(O)=C3C(=O)c4c(O)cccc4[C@@](C)(O)[C@H]3C[C@@H]12", "note": "[tetracycline]", "values": [
      {"measurement": "inhibition at 1 ppm", "setting": "[2]; 10 min ambient light followed by 10 min green light, read-out: Inhibition obtained at 1 ppm (followed by 10 min green light)", "result": 30, "unit": "%"},
      {"measurement": "inhibition at 1 ppm", "setting": "[2]; 10 min ambient light, 1.0×10^7 cells/mL, read-out: Inhibition obtained at 1 ppm (10 min ambiant light)", "result": 0, "unit": "%"},
      {"measurement": "Concentration detected", "setting": "[5]", "result": 10, "unit": "µg/mL"}
    ]}
  ]
}
